Patent US20120009239A1, “Prebiotic Formulations for use with Probiotics to Increase Probiotic Growth Rate and Activity” (MASTER SUPPLEMENTS, INC., priority 2010, published 2012)

Legend:
[1] = test system: L. acidophilus NCFM (LA-1); assay: Growth (turbidity) and lactic acid producing activity of L. acidophilus NCFM in MRS broth with polysorbate 80 or substitute; assay type: cell-based, Lactobacillus acidophilus; conditions: for Lactic Acid % / pH: additive at 0.1% in MRS; for NTU (Turbidity): additive at 0.1% in MRS (polysorbate 80 control 1.0 g per liter)
Method: The prebiotics of this invention can be in the same capsule or formulation as the probiotics, or in a separate dosage form. The prebiotics should be in a separate dosage form if they are naturally occurring, as opposed to adsorbed. […] Prebiotic formulations are often probiotic strain dependent. […] At specified time intervals, a 30 ml sample from each flask was aseptically transferred into a HACH […] Turbidimeter sample cell. The turbidity of each sample was read and the results were reported in NTU's. The same 30 ml sample used for the turbidity reading was transferred into a 250 ml glass beaker, and the pH was recorded. The sample was titrated using 0.1N NaOH to an endpoint of pH 6.8, and the quantity of NaOH used was recorded. The % Lactic Acid was calculated using the following formula: % Lactic Acid=((mls of 0.1N NaOH)×(0.1N)×(90 gm/mole)×(1 L/1000 ml))×100 mls of sample % Lactic Acid=(mls of 0.1N NaOH)×(0.9) (Results reported at 12 hours and 23 hours like: 12/23 in Table I below)

[2] = test system: Lactobacillus paracasei Lpc-37 (F-19); assay: Growth and lactic acid producing activity of Lactobacillus paracasei Lpc-37 in MRS broth; assay type: cell-based; conditions: for Lactic Acid % / pH: additive at 0.1% in MRS; for NTU (Turbidity): additive at 0.1% in MRS (polysorbate 80 control 1.0 g per liter)
From the text: (§1) The prebiotics of this invention can be in the same capsule or formulation as the probiotics, or in a separate dosage form. The prebiotics should be in a separate dosage form if they are naturally occurring, as opposed to adsorbed. The prebiotics of this invention may be taken with carbohydrate or fiber to increase their effectiveness. Prebiotic formulations are often probiotic strain dependent. Some Lactobacillus strains, for example, respond best to a form of lecithin derived from sunflowers (Sunflower Lecithin) while others show no preference to lecithin type and respond equally well to soy lecithin. Other strains show a synergistic response when lecithin is used together with oleic acid. […] Each flask was tempered to 37° C. and aseptically inoculated with 0.14 gm of the individual probiotic strains (in Examples 5 to 10 below) to be tested. At specified time intervals, a 30 ml sample from each flask was aseptically transferred into a HACH […] Turbidimeter sample cell. The turbidity of each sample was read and the results were reported in NTU's. The same 30 ml sample used for the turbidity reading was transferred into a 250 ml glass beaker, and the pH was recorded. The sample was titrated using 0.1N NaOH to an endpoint of pH 6.8, and the quantity of NaOH used was recorded. The % Lactic Acid was calculated using the following formula: % Lactic Acid=((mls of 0.1N NaOH)×(0.1N)×(90 gm/mole)×(1 L/1000 ml))×100 mls of sample % Lactic Acid=(mls of 0.1N NaOH)×(0.9) (Results reported at 12 hours and 23 hours like: 12/23 in Table III below)

[3] = test system: Lactobacillus rhamnosus—Lr-32 (LR-44); assay: Growth and lactic acid producing activity of Lactobacillus rhamnosus Lr-32 in MRS broth; assay type: cell-based; conditions: for Lactic Acid % / pH: additive at 0.1% in MRS; for NTU (Turbidity): additive at 0.1% in MRS (polysorbate 80 control 1.0 g per liter)
From the text: as §1, with “IV” for “III”

[4] = test system: Lactobacillus salivarius—Ls-33 (LS-30); assay: Growth and lactic acid producing activity of Lactobacillus salivarius Ls-33 in MRS broth; assay type: cell-based; conditions: for Lactic Acid % / pH: additive at 0.1% in MRS; for NTU (Turbidity): additive at 0.1% in MRS (polysorbate 80 control 1.0 g per liter)
From the text: as §1, with “V” for “III”

[5] = test system: THERALAC® Lot # 32310A, a commercial probiotic product; assay: Growth of the commercial probiotic […] in MRS broth; assay type: cell-based; conditions: for Lactic Acid % / pH: additive at 0.1% in MRS; for NTU (Turbidity): additive at 0.1% in MRS (polysorbate 80 control 1.0 g per liter), THERALAC inoculated at 0.1%
Method: MRS broth was prepared with (for controls) and without (for tests) polysorbate 80 and filled into 1 liter screw cap flasks at 500 ml each and autoclaved at 121° C. for 30 minutes. Various lecithin and/or oleic acid additives, or nothing (negative control), was added to the tests flasks prior to autoclaving. The flasks were then tempered to 37° C. in a water bath and inoculated at 0.1% with […]® Lot # 32310A, a commercial probiotic product (Master Supplements, Inc., Victoria, Minn.). Capsules of […]® were opened and the contents mixed aseptically to serve as the inoculum source. At an inoculation rate of 0.1%, approximately 80 million CFU was added per ml of MRS media. […]® contains (formulation strength) the following probiotic strains at the approximate CFU values listed per gram: Lactobacillus acidophilus NCFM (LA-1): 30 billion CFU Bifidobacterium lactis B1-04 (BL-34): 30 billion CFU Lactobacillus paracasei Lpc-37 (F-19): 14 billion CFU Lactobacillus rhamnosus Lr-32 (LR-44): 6 billion CFU Bifidobacterium lactis Bi-07: 8 billion CFU Turbidity, pH and titrations (made with 0.1 N NaOH and reported as % lactic acid) were made at various times up to 23 hours. The results are presented below in Table VI for the 12 and 23-hour analyses.

[6] = test system: Bifidobacterium lactic Bl-04 (BL-34); assay: Growth and lactic acid producing activity of Bifidobacterium lactis Bl-04 in MRS broth; assay type: cell-based; conditions: for Lactic Acid % / pH: additive at 0.1% in MRS; for NTU (Turbidity): additive at 0.1% in MRS (polysorbate 80 control 1.0 g per liter)
From the text: as §1, with “II” for “III”

[7] = at the concentrations studied (0.1% + 0.1%)

CCCCCCCC/C=C\CCCCCCCC(=O)O [Oleic Acid]
Replacement of polysorbate 80 (growth and activity), conclusion in words ([1]; 0.1% inclusion rate): somewhat effective | Replacement of polysorbate 80 (growth and activity), conclusion in words ([2]; 0.1% inclusion rate): not as effective a replacement for polysorbate 80 as sunflower lecithin | Synergy with sunflower lecithin [2, 7]: does not appear to be synergistic | Replacement of polysorbate 80 (growth and activity), conclusion in words ([3]; 0.1% inclusion rate): not as good a replacement for polysorbate 80 as sunflower lecithin | Lactic Acid % ([3]; 12 hours): 0.072% | pH ([3]; 12 hours): 6.2 | pH ([3]; 23 hours): 4.1 | Synergy with sunflower lecithin [3, 7]: not synergistic | Replacement of polysorbate 80 (growth and activity), conclusion in words ([4]; 0.1% inclusion rate): not as good a replacement | Lactic Acid % ([4]; 12 hours): 0.073% | pH ([4]; 12 hours): 4.4 | pH ([4]; 23 hours): 3.8 | Replacement of polysorbate 80 (growth and activity), conclusion in words ([5]; 0.1% inclusion rate): acceptable replacement value for polysorbate 80

Polysorbate 80
Lactic Acid % ([1]; 12 hours): 1.09% | pH ([1]; 12 hours): 4.2 | NTU (Turbidity) ([1]; 12 hours): 1855 NTU | Lactic Acid % ([1]; 23 hours): 1.27% | pH ([1]; 23 hours): 4.1 | NTU (Turbidity) ([1]; 23 hours): 2038 NTU | Lactic Acid % ([6]; 12 hours): 0.57% | pH ([6]; 12 hours): 4.8 | NTU (Turbidity) ([6]; 12 hours): 922 NTU | Lactic Acid % ([6]; 23 hours): 0.84% | pH ([6]; 23 hours): 4.5 | NTU (Turbidity) ([6]; 23 hours): 1434 NTU | Lactic Acid % ([2]; 12 hours): 0.99% | pH ([2]; 12 hours): 4.2 | NTU (Turbidity) ([2]; 12 hours): 1664 NTU | Lactic Acid % ([2]; 23 hours): 1.39% | pH ([2]; 23 hours): 3.9 | NTU (Turbidity) ([2]; 23 hours): 2824 NTU | Lactic Acid % ([3]; 12 hours): 1.12% | pH ([3]; 12 hours): 4.0 | NTU (Turbidity) ([3]; 12 hours): 2804 NTU | Lactic Acid % ([3]; 23 hours): 1.67% | pH ([3]; 23 hours): 3.7 | NTU (Turbidity) ([3]; 23 hours): 3776 NTU | Lactic Acid % ([4]; 12 hours): 1.42% | pH ([4]; 12 hours): 3.8 | NTU (Turbidity) ([4]; 12 hours): 3426 NTU | Lactic Acid % ([4]; 23 hours): 1.68% | pH ([4]; 23 hours): 3.7 | NTU (Turbidity) ([4]; 23 hours): 3931 NTU | Lactic Acid % ([5]; 12 hours): 1.42% | pH ([5]; 12 hours): 3.9 | NTU (Turbidity) ([5]; 12 hours): 3311 NTU | Lactic Acid % ([5]; 23 hours): 1.84% | pH ([5]; 23 hours): 3.7 | NTU (Turbidity) ([5]; 23 hours): 3694 NTU
